These results are taken from patent publication US20110206647A1, “Modulation of Angiogenesis” (ABT Holding Company, priority 2010, published 2011).

Experiment [1] relates to human umbilical vein endothelial cell (HUVEC). Description: in vitro HUVEC angiogenesis (tube formation) assay. In kind it is cell-based. As to conditions: for induction of angiogenesis by factor added to basal media: MultiStem basal media, IL-8 4000 pg/ml, CXCL5 150 pg/ml. How it is done: Growth factor-reduced Matrigel (BD Bioscience, San Jose, Calif.) was thawed on ice at 4° C. overnight and used at a concentration of 6.0-6.5 mg/ml, diluted on ice using ice-cold 1×PBS. Four-hundred microliters of Matrigel was distributed into the inner wells of a 24-well tissue culture plate and allowed to solidify for 1 hour at 37° C. Addition of Matrigel was done on ice and outer wells of plate were filled with 1 ml of 1×PBS.
HUVECs were harvested according to the following protocol: Cells were washed with 1×PBS followed by a brief rinse with 0.25× trypsin-EDTA and then quenched using the 1×PBS (with residual serum) wash. Cells were resuspended in endothelial cell basal media (EBM) and counted. HUVECs were added to the CM, other experimental conditions and controls at a concentration of 55,000 cells/ml/well. Each sample and control was assayed in triplicate. Plates were incubated for 6 hours or 18 hours at 5% CO2 and 37° C. to allow for tube formation. Four fields per well were analyzed for a total of 12 fields. Pictures were taken at using 10× objective. Angiogenesis was scored by counting the number of tubes formed between cells. Results are expressed as average tubes formed per field +/−SEM.
To test whether MultiStem secretes factors which promote angiogenesis, an in vitro angiogenesis assay using conditioned media from MultiStem was utilized. MultiStem were plated under normal conditions for 24 hours. The cells were then transferred to serum-free conditions to generate conditioned media for four days. This media was then tested for angiogenic activity in an in vitro tube formation assay. […] HUVECs were plated in conditioned media, basal media or endothelial growth media for 18 hours. Angiogenesis was measured as the average number of tubes formed per field of view for each condition. In the absence of any additional factors, the presence of serum alone in basal media can induce angiogenesis. Therefore, serum-free media was used for all the experiments.

The test system of another experiment is MultiStem. Briefly: RT-PCR analysis of pro-angiogenic gene expression in treated MultiStem. In kind it is cell-based, human. As for the experimental part:
FIG. 7—Treatment of MultiStem with Cytomix increases the expression of pro-angiogenic molecules in vitro. MultiStem was grown for three days and then treated with Cytomix (10 ng/mL TNF-α, IL-1β and IFNγ) for 24, 48, 72 hrs. The cells were subsequently collected for RT-PCR analysis for pro-angiogenic gene expression.
FIGS. 10A-C—Pre-treatment of MultiStem with prostaglandin F or latanoprost (prostaglandin F agonist) increases expression of the angiogenic factors by MultiStem in vitro. […] MultiStem was treated with a dose range of Latanoprost for 24, 48 or 72 hours. Gene expression of pro-angiogenic factors was then analyzed by RT-PCR. Gene expression of KITLG (A), HGF and VEGF (B), and Il-8 (C) were all increased.

Where [2] appears, read: MultiStem treated 24, 48, 72 hrs.
Where [3] appears, read: MultiStem treated 24, 48 or 72 hours.

Consider `CC(C)OC(=O)CCC/C=C\C[C@@H]1[C@@H](CC[C@@H](O)CCc2ccccc2)[C@H](O)C[C@@H]1O` [latanoprost], for which, in experiment [1] (1 uM added to media after collection), the “angiogenesis, CM from untreated cells with agent added after collection vs CM alone” value is on record as “equal levels”. For the same compound, in experiment [1] (1 uM in basal media, no cells), the “tube formation, basal media with added agent” value was “did no induce significant tube formation”. In experiment [1] (MultiStem cultured three days with 1 uM, serum-free CM), the “HUVEC tube formation, conditioned media from treated MultiStem vs untreated” value is reported as “increased modestly”. In addition, in the experiment on MultiStem (setting [2]), the HGF gene expression entry was “increased” and the IL-8 gene expression entry is recorded as “increased”. The “VEGF (VEGF A) gene expression” value in the experiment with MultiStem (setting [3]) is recorded as “increased”. Also, the KITLG gene expression result with MultiStem (MultiStem treated 24, 48 or 72 hours, dose range) is “increased”.

“CXCL5: angiogenic cytokine added to MultiStem basal media (150 pg/ml)”: the “induction of angiogenesis by factor added to basal media” value in experiment [1] is listed as “not sufficient to induce angiogenesis”.

In the case of “IL-8: interleukin 8 added to MultiStem basal media (4000 pg/ml)”, the “induction of angiogenesis by factor added to basal media” value in experiment [1] was “not sufficient to induce angiogenesis”.

In the case of prostaglandin F, the “VEGF (VEGF A) gene expression” value with MultiStem (setting [3]) is given as “increased”.
